Assay results from US8802663B2, “Pyrazole oxadiazole derivatives as S1P1 agonists” (Merck Serono SA, priority 2009, dated 2014).
Structures can show the parent of a compound that is named as a salt.

What follows are molecules tested against S1P1 (Homo sapiens (Human), UniProt P21453) (assay: 35S-GTPγS binding, membranes from CHO cells expressing S1P1). Conditions: CHO cell membranes.
Format: biochemical
Procedure: Cells were suspended in 50 mM TRIS, pH 7.4, 2 mM EDTA, 250 mM Sucrose (buffer A) and 1× Complete protease inhibitor cocktail (Roche), and disrupted at 4° C. by N2 decompression using a cell disruption bomb (Parr Instrument). Following centrifugation at 1000 RPM for 10 min at 4° C., the supernatant was suspended in buffer A and centrifuged again at 19000 RPM for 60 min at 4° C. The pellet was then suspended in 10 mM HEPES, pH 7.4, 1 mM EDTA, 250 mM Sucrose (Buffer B), and 1× Complete EDTA-free protease inhibitor cocktail and homogenized using a potter. Membranes were flash frozen in liquid N2 and stored at −80° C. [33P]sphingosine 1-phosphate (3000 Ci/mmol; American Radiolabeled Chemicals, Inc.) was added to test compounds in DMSO. […] Specific binding was calculated by subtracting remaining radioactivity in the presence of 1000-fold excess of unlabeled SIP. Binding data were analyzed using the GraphPad Prism program.
After 60 min incubation at 30° C. on a shaker, plates were centrifuged for 10 min at 2000 RPM. […] Triplicate samples were averaged and expressed as % response relative to S1P activation in absence of compound (n=2).

Sequence of S1P1 (P21453 whole entry, species assumed): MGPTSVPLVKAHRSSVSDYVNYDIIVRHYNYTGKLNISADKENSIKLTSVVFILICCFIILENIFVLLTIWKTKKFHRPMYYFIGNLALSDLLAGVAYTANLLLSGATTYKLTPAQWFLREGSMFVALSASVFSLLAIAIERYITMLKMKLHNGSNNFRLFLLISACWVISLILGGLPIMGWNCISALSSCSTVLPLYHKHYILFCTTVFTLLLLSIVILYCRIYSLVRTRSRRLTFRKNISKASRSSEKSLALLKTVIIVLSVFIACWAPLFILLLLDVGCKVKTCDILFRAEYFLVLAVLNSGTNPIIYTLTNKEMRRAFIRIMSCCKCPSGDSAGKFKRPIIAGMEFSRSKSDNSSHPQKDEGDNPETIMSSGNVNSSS

EC50 [nM]	SMILES
157	CS(=O)(=O)c1cccc(-c2nc(-c3cnn(C4CCCCC4)c3-c3ccccc3)no2)c1 [Example 58, 3-(1-cyclohexyl-5-phenyl-1H-pyrazol-4-yl)-5-[3-(methylsulfonyl)phenyl]-1,2,4-oxadiazole]
335	FC(F)(F)c1cccc(-c2nc(-c3cnn(C4CCCCC4)c3-c3ccccc3)no2)c1 [Example 59, 3-(1-cyclohexyl-5-phenyl-1H-pyrazol-4-yl)-5-[3-(trifluoromethyl)phenyl]-1,2,4-oxadiazole]
320	Cc1c(-c2nc(-c3cc(F)ccc3F)no2)cnn1-c1ccccc1F [Example 60, 3-(2,5-difluorophenyl)-5-[1-(2-fluorophenyl)-5-methyl-1H-pyrazol-4-yl]-1,2,4-oxadiazole]
22	CN(CC(=O)O)Cc1ccc(-c2noc(-c3cnn(C4CCCCC4)c3-c3ccncc3)n2)cc1 [Example 61, N-{4-[5-(1-cyclohexyl-5-pyridin-4-yl-1H-pyrazol-4-yl)-1,2,4-oxadiazol-3-yl]benzyl}-N-methylglycine]
3	OC1CN(Cc2ccc(-c3noc(-c4cnn(C5CCCCC5)c4-c4ccncc4)n3)cc2)C1 [Example 62, 1-{4-[5-(1-cyclohexyl-5-pyridin-4-yl-1H-pyrazol-4-yl)-1,2,4-oxadiazol-3-yl]benzyl}azetidin-3-ol]
428	CC(C)Cn1ncc(-c2nc(-c3ccc(CO)cc3)no2)c1C1CCOCC1 [Example 63]
99	COCc1c(-c2nc(-c3ccc(CN4CCC(C(=O)O)CC4)cc3)no2)cnn1C1CCCCC1 [Example 64, 1-(4-{5-[1-cyclohexyl-5-(methoxymethyl)-1H-pyrazol-4-yl]-1,2,4-oxadiazol-3-yl}benzyl)piperidine-4-carboxylic acid]
1	O=C(O)CCNCc1ccc(-c2noc(-c3cnn(C4CCCCC4)c3-c3ccncc3)n2)cc1 [Example 65, N-{4-[5-(1-cyclohexyl-5-pyridin-4-yl-1H-pyrazol-4-yl)-1,2,4-oxadiazol-3-yl]benzyl}-beta-alanine]
13	c1cc(-c2c(-c3nc(-c4ccc(CN5CCC5)cc4)no3)cnn2C2CCCCC2)ccn1 [Example 66, 4-(4-{3-[4-(azetidin-1-ylmethyl)phenyl]-1,2,4-oxadiazol-5-yl}-1-cyclohexyl-1H-pyrazol-5-yl)pyridine]
1.4	COCc1c(-c2nc(-c3ccc(CNCCC(=O)O)cc3)no2)cnn1C1CCCCC1 [Example 67, N-(4-{5-[1-cyclohexyl-5-(methoxymethyl)-1H-pyrazol-4-yl]-1,2,4-oxadiazol-3-yl}benzyl)-beta-alanine]
0.3	COCc1c(-c2nc(-c3ccc(CN4CC(C(=O)O)C4)cc3)no2)cnn1C1CCCCC1 [Example 68, 1-(4-{5-[1-cyclohexyl-5-(methoxymethyl)-1H-pyrazol-4-yl]-1,2,4-oxadiazol-3-yl}benzyl)azetidine-3-carboxylic acid]
437	COCc1c(-c2nc(-c3ccc(CO)cc3)no2)cnn1CC(C)C [Example 69, (4-{5-[1-isobutyl-5-(methoxymethyl)-1H-pyrazol-4-yl]-1,2,4-oxadiazol-3-yl}phenyl)methanol]
82	OCc1ccc(-c2noc(-c3cnn(C4CCCCC4)c3C3CCOCC3)n2)cc1 [Example 70, (4-{5-[1-cyclohexyl-5-(tetrahydro-2H-pyran-4-yl)-1H-pyrazol-4-yl]-1,2,4-oxadiazol-3-yl}phenyl)methanol]
6	O=C(O)C1CCN(Cc2ccc(-c3noc(-c4cnn(C5CCCCC5)c4-c4ccncc4)n3)cc2)CC1 [Example 71, 1-{4-[5-(1-cyclohexyl-5-pyridin-4-yl-1H-pyrazol-4-yl)-1,2,4-oxadiazol-3-yl]benzyl}piperidine-4-carboxylic acid]
119	COCc1c(-c2nc(-c3ccc(CN(C)CC(=O)O)cc3)no2)cnn1C1CCCCC1 [Example 72, N-(4-{5-[1-cyclohexyl-5-(methoxymethyl)-1H-pyrazol-4-yl]-1,2,4-oxadiazol-3-yl}benzyl)-N-methylglycine]
30	COCc1c(-c2nc(-c3ccc(CN4CC(O)C4)cc3)no2)cnn1C1CCCCC1 [Example 73, 1-(4-{5-[1-cyclohexyl-5-(methoxymethyl)-1H-pyrazol-4-yl]-1,2,4-oxadiazol-3-yl}benzyl)azetidin-3-ol]
86	COCc1c(-c2nc(-c3ccc(CN4CCC(O)C4)cc3)no2)cnn1C1CCCCC1 (centres unmarked) [Example 74, 1-(4-{5-[1-cyclohexyl-5-(methoxymethyl)-1H-pyrazol-4-yl]-1,2,4-oxadiazol-3-yl}benzyl)pyrrolidin-3-ol]
63	COCc1c(-c2nc(-c3ccc(CN(C)C)cc3)no2)cnn1C1CCCCC1 [Example 75, 1-(4-{5-[1-cyclohexyl-5-(methoxymethyl)-1H-pyrazol-4-yl]-1,2,4-oxadiazol-3-yl}phenyl)-N,N-dimethylmethanamine]

EC50 [nM]	SMILES
23	COCc1c(-c2nc(-c3ccc(CN4CC(C(=O)O)C4)cc3)no2)cnn1CC(C)C [Example 76, 1-(4-{5-[1-isobutyl-5-(methoxymethyl)-1H-pyrazol-4-yl]-1,2,4-oxadiazol-3-yl}benzyl)azetidine-3-carboxylic acid]
837	CC(C)Cn1ncc(-c2nc(-c3ccc(CN(C)CC(=O)O)cc3)no2)c1-c1ccncc1 [Example 77, N-{4-[5-(1-isobutyl-5-pyridin-4-yl-1H-pyrazol-4-yl)-1,2,4-oxadiazol-3-yl]benzyl}-N-methylglycine]
67	COCCNCc1ccc(-c2noc(-c3cnn(C4CCCCC4)c3-c3ccncc3)n2)cc1 [Example 78, N-(4-(5-(1-cyclohexyl-5-(pyridin-4-yl)-1H-pyrazol-4-yl)-1,2,4-oxadiazol-3-yl)benzyl)-2-methoxyethanamine]
252	CC(C)Cn1ncc(-c2nc(-c3ccc(CN4CCC(O)C4)cc3)no2)c1-c1ccncc1 (centres unmarked) [Example 80, 1-(4-(5-(1-isobutyl-5-(pyridin-4-yl)-1H-pyrazol-4-yl)-1,2,4-oxadiazol-3-yl)benzyl)pyrrolidin-3-ol, formate]
195	CC(C)Cn1ncc(-c2nc(-c3ccc(CN(C)C)cc3)no2)c1-c1ccncc1 [Example 81, 1-(4-(5-(1-isobutyl-5-(pyridin-4-yl)-1H-pyrazol-4-yl)-1,2,4-oxadiazol-3-yl)phenyl)-N,N-dimethylmethanamine, formate]
156	CC(C)Cn1ncc(-c2nc(-c3ccc(CN4CC(O)C4)cc3)no2)c1-c1ccncc1 [Example 82, 1-(4-(5-(1-isobutyl-5-(pyridin-4-yl)-1H-pyrazol-4-yl)-1,2,4-oxadiazol-3-yl)benzyl)azetidin-3-ol, formate]
313	Cc1nn(C2CCCCC2)cc1-c1nc(-c2cc(F)ccc2F)no1 [Example 83, 5-(1-cyclohexyl-3-methyl-1H-pyrazol-4-yl)-3-(2,5-difluorophenyl)-1,2,4-oxadiazole]
288	COCc1c(-c2nc(-c3ccc(CNCCC(=O)O)cc3)no2)cnn1CC(C)C [Example 84, 3-(4-(5-(1-isobutyl-5-(methoxymethyl)-1H-pyrazol-4-yl)-1,2,4-oxadiazol-3-yl)benzylamino)propanoic acid]
179	CNCc1ccc(-c2noc(-c3cnn(CC(C)C)c3-c3ccncc3)n2)cc1 [Example 85, 1-(4-(5-(1-isobutyl-5-(pyridin-4-yl)-1H-pyrazol-4-yl)-1,2,4-oxadiazol-3-yl)phenyl)-N-methylmethanamine]
306	Cc1c(-c2nc(-c3cc(F)ccc3F)no2)cnn1C1CCCCC1 [Example 86, 5-(1-cyclohexyl-5-methyl-1H-pyrazol-4-yl)-3-(2,5-difluorophenyl)-1,2,4-oxadiazole]
361	FC(F)(F)c1cccc(-c2noc(-c3cnn(C4CCCCC4)c3C3CCOCC3)n2)c1 [Example 87, 5-(1-cyclohexyl-5-(tetrahydro-2H-pyran-4-yl)-1H-pyrazol-4-yl)-3-(3-(trifluoromethyl)phenyl)-1,2,4-oxadiazole]
47	CNCc1ccc(-c2noc(-c3cnn(C4CCCCC4)c3C3CCOCC3)n2)cc1 [Example 88, 1-(4-(5-(1-cyclohexyl-5-(tetrahydro-2H-pyran-4-yl)-1H-pyrazol-4-yl)-1,2,4-oxadiazol-3-yl)phenyl)-N-methylmethanamine]
35	CC(C)(C)Cn1ncc(-c2nc(-c3cccc(C(F)(F)F)c3)no2)c1-c1ccncc1 [Example 90, 5-(1-neopentyl-5-(pyridin-4-yl)-1H-pyrazol-4-yl)-3-(3-(trifluoromethyl)phenyl)-1,2,4-oxadiazole]
158	Brc1ccc(-c2noc(-c3cnn(C4CCCCC4)c3-c3ccncc3)n2)cc1 [Example 92, 3-(4-bromophenyl)-5-(1-cyclohexyl-5-(pyridin-4-yl)-1H-pyrazol-4-yl)-1,2,4-oxadiazole]
301	CC(C)(C)Cn1ncc(-c2nc(-c3cc(F)ccc3F)no2)c1-c1ccncc1 [Example 93, 3-(2,5-difluorophenyl)-5-(1-neopentyl-5-(pyridin-4-yl)-1H-pyrazol-4-yl)-1,2,4-oxadiazole]
387	OCc1ccc(-c2noc(-c3cnn(CC4CC4)c3-c3ccncc3)n2)cc1 [Example 94, (4-(5-(1-(cyclopropylmethyl)-5-(pyridin-4-yl)-1H-pyrazol-4-yl)-1,2,4-oxadiazol-3-yl)phenyl)methanol]
96	c1cc(-c2c(-c3nc(-c4ccc5nccn5c4)no3)cnn2C2CCCCC2)ccn1 [Example 95, 5-(1-cyclohexyl-5-(pyridin-4-yl)-1H-pyrazol-4-yl)-3-(imidazo[1,2-a]pyridin-6-yl)-1,2,4-oxadiazole]
